Key:
KCNQ3* (KCNQ3-A315T) = KCNQ3* (KCNQ3-A315T) (Homo sapiens, UniProt O43525, A315T); assay: TEVC of KCNQ3* homomers expressed in Xenopus laevis oocytes; type: cell-based; conditions: for Slope / V0.5 Normalized tail current / shift in V0.5act / V0.5 non-normalized tail current: 100 µM
KCNQ2/3 = biological target: T1, KCNQ2/3 (Homo sapiens, UniProt O43525+O43526); assay: TEVC of KCNQ2/3 heteromers expressed in Xenopus laevis oocytes; type: cell-based; conditions: 100 µM
T1 construct: expressed in transfected cells; host or cells: Xenopus laevis oocytes co-injected with cRNAs
Description: We generated cRNA transcripts encoding human KCNQ1, 2, 3, and 5 (wild-type and mutant) by in vitro transcription using the mMessage mMachine kit (Thermo Fisher Scientific, Waltham, MA, USA) according to manufacturer’s instructions, after vector linearization, from cDNA sub-cloned into expression vectors (pTLNx and pXOOM) incorporating Xenopus laevis β-globin 5’ and 3’ UTRs flanking the coding region to enhance translation and cRNA stability. Mutant KCNQ cDNAs were generated by Genscript (Piscataway, NJ, USA) and cRNAs made as above. We injected defolliculated stage V and VI Xenopus laevis oocytes (Xenoocyte, Dexter, MI, USA) with KCNQ cRNAs (2–10 ng) and incubated the oocytes at 16 °C in ND96 oocyte storage solution containing penicillin and streptomycin, with daily washing, for 2–4 days prior to two-electrode voltage-clamp (TEVC) recording.
We placed oocytes in a small-volume oocyte bath (Warner) and viewed them with a dissection microscope for cellular electrophysiology. We sourced chemicals from Sigma-Aldrich (St. Louis, MO, USA) and Combi-Blocks (San Diego, CA, USA). We studied effects of Salvia rosmarinus extracts and of compounds, solubilized directly in bath solution (in mM): 96 NaCl, 4 KCl, 1 MgCl2, 1 CaCl2, 10 HEPES (pH 7.6). We introduced extracts or compounds into the oocyte recording bath by gravity perfusion at a constant flow of 1 ml per minute for 3 min prior to recording. Pipettes were of 1-2 MΩ resistance when filled with 3 M KCl. […] We analyzed data using Clampfit (Molecular Devices) and Graphpad Prism software (GraphPad, San Diego, CA, USA), stating values as mean ± SEM. We plotted raw or normalized tail currents versus prepulse voltage and fitted with a single Boltzmann function:1 g=(A1−A2)/1+exp[V1/2−V/Vs]y+A2 where g is the normalized tail conductance, A1 is the initial value at -∞, A2 is the final value at +∞, V1/2 is the half-maximal voltage of activation and Vs the slope factor. We fitted activation and deactivation kinetics with single exponential functions.

[1] = test system: voltage-gated calcium channel, Cav3.2; design: method as in PMID 29073181; conditions: cited from earlier work
KCNQ3/5 = test system: KCNQ3/5; design: method as in PMID 11159685; conditions: cited from earlier work
KCNQ2/3 channels = test system: KCNQ2/3 channels; design: method as in PMID 35459955; conditions: cited from earlier work

Chain of KCNQ3* (KCNQ3-A315T) (O43525 whole entry A315T): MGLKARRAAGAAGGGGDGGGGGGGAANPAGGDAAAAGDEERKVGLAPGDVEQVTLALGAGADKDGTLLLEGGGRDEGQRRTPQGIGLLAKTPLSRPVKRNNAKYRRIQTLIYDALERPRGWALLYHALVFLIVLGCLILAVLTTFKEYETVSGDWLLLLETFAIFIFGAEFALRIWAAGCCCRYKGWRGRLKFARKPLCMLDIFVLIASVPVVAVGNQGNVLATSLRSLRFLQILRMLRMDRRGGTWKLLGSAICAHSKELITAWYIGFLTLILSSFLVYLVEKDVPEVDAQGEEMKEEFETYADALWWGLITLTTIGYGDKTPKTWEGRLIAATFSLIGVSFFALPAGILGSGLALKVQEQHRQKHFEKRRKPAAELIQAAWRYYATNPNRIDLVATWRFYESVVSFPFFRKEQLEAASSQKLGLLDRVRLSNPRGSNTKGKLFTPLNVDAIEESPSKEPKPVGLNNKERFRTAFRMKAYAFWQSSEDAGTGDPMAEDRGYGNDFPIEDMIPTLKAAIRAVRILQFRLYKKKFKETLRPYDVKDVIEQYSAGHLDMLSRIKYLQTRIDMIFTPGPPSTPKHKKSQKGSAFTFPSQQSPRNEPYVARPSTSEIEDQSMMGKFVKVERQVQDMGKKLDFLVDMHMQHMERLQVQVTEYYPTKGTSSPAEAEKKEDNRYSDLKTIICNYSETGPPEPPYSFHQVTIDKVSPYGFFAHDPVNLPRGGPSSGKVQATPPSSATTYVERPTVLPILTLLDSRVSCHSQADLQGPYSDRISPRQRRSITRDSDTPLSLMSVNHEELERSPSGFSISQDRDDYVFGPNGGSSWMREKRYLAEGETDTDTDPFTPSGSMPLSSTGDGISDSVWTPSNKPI

SMILES | Slope (KCNQ3* (KCNQ3-A315T)) [mV] | V0.5 Normalized tail current (KCNQ3* (KCNQ3-A315T)) [mV] | Slope (KCNQ2/3) [mV] | V0.5 Normalized tail current (KCNQ2/3) [mV] | V0.5 non-normalized tail current (KCNQ3* (KCNQ3-A315T)) [mV] | other results
CC(C)c1cc2c(cc1O)C1(C(=O)O)CCCC(C)(C)C1CC2 (stereo not drawn) [Pisiferic acid, pisiferic acid] | 4.89 ± 0.45 | -51.70 ± 0.51 | 7.44 ± 0.55 | -42.05 ± 0.63 | – | shift in V0.5act (KCNQ3* (KCNQ3-A315T)): only weakly negative-shifted
O=C(O)[C@]1(O)C[C@@H](O)[C@@H](O)[C@H](O)C1 [Quinic acid, quinic acid] | 3.96 ± 0.88 | -53.04 ± 1.09 | 4.07 ± 0.85 | -47.87 ± 0.94 | -51.87 ± 2.53 | shift in V0.5act (KCNQ3* (KCNQ3-A315T)): ~ −10 mV; V0.5 non-normalized tail current (KCNQ2/3): -45.78 ± 1.64 mV
O=C(/C=C/c1ccc(O)c(O)c1)O[C@H](Cc1ccc(O)c(O)c1)C(=O)O [Rosmarinic acid] | 4.36 ± 0.60 | -49.64 ± 0.84 | – | – | -50.09 ± 3.47 | IC50 [1]: 49.9 µM
COc1cc(C(=O)O)cc(OC)c1O [Syringic acid] | 4.92 ± 1.03 | -49.16 ± 1.21 | 5.13 ± 0.75 | -47.76 ± 0.91 | -51.58 ± 5.36 | V0.5 non-normalized tail current (KCNQ2/3): -44.21 ± 2.07 mV
C[C@H]1[C@H](C)CC[C@]2(C(=O)O)CC[C@]3(C)C(=CC[C@@H]4[C@@]5(C)CC[C@H](O)C(C)(C)[C@@H]5CC[C@]43C)[C@H]12 [Ursolic acid] | 4.49 ± 0.53 | – | – | – | – | –
CCOC(=O)Nc1ccc(NCc2ccc(F)cc2)cc1N [retigabine] | – | – | – | – | – | shift in V0.5 of KCNQ3/5 activation (KCNQ3/5; 30 µM): −31.8 mV; EC50 (KCNQ3/5): 1.4 µM
Oc1cc(Cl)ccc1Oc1ccc(Cl)cc1Cl [triclosan] | – | – | – | – | – | EC50 (KCNQ2/3 channels): 32 µM
COC[C@H]1OC(=O)c2coc3c2[C@@]1(C)C1=C(C3=O)[C@@H]2CCC(=O)[C@@]2(C)C[C@H]1OC(C)=O [wortmannin, reference compound] | – | – | – | – | – | reduction of KCNQ3* current magnitude (KCNQ3* (KCNQ3-A315T); wortmannin pretreatment to reduce PIP2): ~ fivefold

Source: article PMC10272180, “Ancient medicinal plant rosemary contains a highly efficacious and isoform-selective KCNQ potassium channel opener” (Communications Biology, 2023)
